Columns and labels:
PKC theta = target: T1, PKC theta (Homo sapiens, UniProt Q04759); assay: PKC assay, fluorescence polarization (Example 2), PKC theta; format: biochemical; conditions: 5 μM ATP
T1 construct: purchased Upstate Biotechnologies, Temecula, CA 14-444
Procedure, shortened: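 Phosphorylated peptide product detected by fluorescence polarization, with EDTA quench plus peptide tracer and antibody. Reaction in 20 mM HEPES pH 7.4, 5 mM MgCl2, 0.2 mM CaCl2, 1 mM DTT, 0.02% Brij-35, phosphatidylserine and dioleoyl-sn-glycerol, with 5 μM ATP and 5 μM peptide. Started with enzyme, 20 min at room temperature.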

PKC epsilon = target: T2, PKC epsilon (Homo sapiens, UniProt Q02156); assay: PKC assay, fluorescence polarization (Example 2), PKC epsilon; format: biochemical; conditions: 5 μM ATP
T2 construct: purchased Upstate Biotechnologies, Temecula, CA 14-518
T2 sequence (Q02156 1-737): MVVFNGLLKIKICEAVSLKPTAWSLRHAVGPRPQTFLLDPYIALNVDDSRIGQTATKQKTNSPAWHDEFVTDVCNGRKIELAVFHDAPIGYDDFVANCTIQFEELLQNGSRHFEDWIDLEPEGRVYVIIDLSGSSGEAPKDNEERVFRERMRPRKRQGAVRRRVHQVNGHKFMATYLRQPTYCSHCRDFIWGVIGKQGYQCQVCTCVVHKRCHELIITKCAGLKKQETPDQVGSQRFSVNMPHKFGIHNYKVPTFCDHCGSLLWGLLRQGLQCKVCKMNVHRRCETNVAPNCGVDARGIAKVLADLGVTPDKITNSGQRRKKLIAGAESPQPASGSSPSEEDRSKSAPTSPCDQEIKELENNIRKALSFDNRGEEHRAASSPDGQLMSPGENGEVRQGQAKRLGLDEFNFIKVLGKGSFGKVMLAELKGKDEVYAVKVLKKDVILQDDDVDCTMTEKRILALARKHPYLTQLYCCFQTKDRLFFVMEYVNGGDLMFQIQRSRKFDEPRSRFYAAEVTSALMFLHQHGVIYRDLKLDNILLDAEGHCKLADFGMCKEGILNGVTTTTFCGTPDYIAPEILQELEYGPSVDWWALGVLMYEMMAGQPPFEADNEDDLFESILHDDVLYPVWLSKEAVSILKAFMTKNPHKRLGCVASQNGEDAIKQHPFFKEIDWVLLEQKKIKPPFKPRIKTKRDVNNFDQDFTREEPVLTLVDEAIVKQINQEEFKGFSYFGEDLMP
Procedure: The inhibition of PKC activity was measured by monitoring the production of phosphorylated peptide by fluorescence polarization at different concentrations of the inhibitor. Reactions were carried out in 96-well plate format with a total volume of 20 μL containing 20 mM HEPES, pH 7.4, 5 mM MgCl2, 0.2 mM CaCl2, 1 mM DTT, 0.02% Brij-35, 0.1 mg/mL phosphatidylserine, 0.02 mg/mL dioleoyl-sn-glycerol and 5 μM each of ATP and the peptide substrate. Compounds were first diluted serially in DMSO and then transferred to a solution containing the above concentrations of HEPES, MgCl2, CaCl2, DTT, and Brij-35 to yield 5× compound solutions in 2% DMSO, which was then added to the reaction solution. Reactions were initiated by the addition of PKC at a typical concentration as described in Table VI, and then allowed to incubate at room temperature for 20 min. At the end of this time, a combination of quench (EDTA) and detection (peptide tracer and antibody) reagents was added using the protocol of Invitrogen P2748.

Human primary T cells = assay: IL-2 ELISA, Human Primary T Cell, Anti-CD3+CD28+ (Example 3); format: cell-based; conditions: anti-CD3+CD28 stimulation
Procedure, shortened: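 IL-2 was read by ELISA after stimulation on wells pre-coated with 1 ug/ml αCD3 and 5 μg/ml αCD28. Before this, 100,000 human primary T cells per well spent 1 h at 37 °C with test compound in Yssel's medium. The counter-screen replaced antibody stimulation with PMA (0.5 ng/ml final) and ionomycin (0.1 uM final).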

T1 sequence (Q04759 whole entry): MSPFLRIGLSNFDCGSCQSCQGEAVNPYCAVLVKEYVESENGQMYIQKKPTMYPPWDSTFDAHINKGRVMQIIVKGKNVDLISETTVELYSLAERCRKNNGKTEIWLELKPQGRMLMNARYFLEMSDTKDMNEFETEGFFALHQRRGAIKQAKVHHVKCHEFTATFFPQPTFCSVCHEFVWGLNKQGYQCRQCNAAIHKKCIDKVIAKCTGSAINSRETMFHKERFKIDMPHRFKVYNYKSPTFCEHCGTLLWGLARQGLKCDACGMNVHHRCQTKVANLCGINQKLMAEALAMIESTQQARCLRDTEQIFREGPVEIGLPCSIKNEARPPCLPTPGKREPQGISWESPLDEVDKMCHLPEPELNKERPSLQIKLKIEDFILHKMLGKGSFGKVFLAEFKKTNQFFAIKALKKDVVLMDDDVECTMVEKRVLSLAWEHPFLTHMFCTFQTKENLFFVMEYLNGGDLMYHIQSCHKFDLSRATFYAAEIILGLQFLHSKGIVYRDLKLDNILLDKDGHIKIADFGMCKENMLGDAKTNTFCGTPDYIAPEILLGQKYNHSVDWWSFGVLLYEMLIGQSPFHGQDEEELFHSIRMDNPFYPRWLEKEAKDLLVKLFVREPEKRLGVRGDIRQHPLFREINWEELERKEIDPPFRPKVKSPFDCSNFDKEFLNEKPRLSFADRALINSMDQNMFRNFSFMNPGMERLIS

Compound | IC50 (PKC theta) | IC50 (PKC epsilon) | IC50 (Human primary T cells; Homo sapiens, T-cell, 24 h) | IC50 (Human primary T cells; 24 hours)
CN1C(C)(C)CC(Nc2nc(Nc3ccc(-n4cccc4)c(C#N)c3)ncc2F)CC1(C)C [Compound I-148] | 13.5 nM | 150 nM | 223 nM | 
COc1cc(Nc2ncc(C(F)(F)F)c(NC3CC(C)(C)N(C)C(C)(C)C3)n2)cc(-n2cnnn2)c1 [Compound I-356] | 7.26 nM | 43 nM | 96 nM | 
Cc1ccc(Nc2ncc(C#N)c(NC3CC(C)(C)NC(C)(C)C3)n2)cc1-n1cnnn1 [Compound I-461] | 0.8 nM | 50 nM | 230 nM | 
CN1C(C)(C)CC(Nc2nc(Nc3ccc4ncccc4c3)ncc2F)CC1(C)C [II-1] | 9.66 nM | 144 nM | 612 nM | 
CCCN1CCN(c2ccc(Nc3ncc(F)c(NC4CC(C)(C)N(C)C(C)(C)C4)n3)cc2C(F)(F)F)CC1 [Compound I-247] | 19.9 nM | 66.9 nM | 131 nM | 
CCOc1ccc(Nc2ncc(C(N)=O)c(NC3CC(C)(C)N(C)C(C)(C)C3)n2)cc1-n1nnnc1CC [Compound I-420] | 3.2 nM | 115 nM | 250 nM | 
CN1C(C)(C)CC(Nc2nc(Nc3ccc(-c4cccnc4)c(F)c3)ncc2F)CC1(C)C [Compound I-118] | 18.2 nM | 10.3 nM | 237 nM | 
Cc1ccc(Nc2ncc(Cl)c(NC3CC(C)(C)N(C)C(C)(C)C3)n2)cc1C#N [Compound I-168] | 2.72 nM | 32.7 nM | 120 nM | 
CN1CCN(c2ccc(Nc3ncc(C(F)(F)F)c(NC4CC(C)(C)N(C)C(C)(C)C4)n3)cc2C#N)CC1 [Compound I-178] | 0.81 nM | 160 nM | 243 nM | 
CN1C(C)(C)CC(Nc2nc(Nc3ccc(N4CCOCC4)c(C(F)(F)F)c3)ncc2F)CC1(C)C [Compound I-224] | 29.1 nM | 19 nM | 112 nM | 
COc1cc(Nc2ncc(F)c(NC3CC(C)(C)N(C)C(C)(C)C3)n2)cc(OC)c1 [Compound I-129] | 4.19 nM | 26.8 nM | 214 nM | 
CN1C(C)(C)CC(Nc2nc(Nc3cccc(OC(F)(F)F)c3)ncc2F)CC1(C)C [Compound I-223] | 31.7 nM | 119 nM | 184 nM | 
CN1C(C)(C)CC(Nc2nc(Nc3ccc4c(c3)oc(=O)n4CC3CC3)ncc2F)CC1(C)C [II-163] | 6.1 nM | 140 nM | 280 nM | 
CCCN1CCN(c2cc(Nc3ncc(F)c(NC4CC(C)(C)N(C)C(C)(C)C4)n3)ccc2C(F)(F)F)CC1 [Compound I-218] | 6.52 nM | 18.4 nM | 216 nM | 
COc1ccc(Nc2ncc(Cl)c(NC3CC(C)(C)N(C)C(C)(C)C3)n2)cc1OC(F)F [Compound I-341] | 0.55 nM | 53.2 nM | 45.6 nM | 
Cc1ccc(Nc2ncc(F)c(NC3CC(C)(C)N(C)C(C)(C)C3)n2)cc1-c1ccoc1 [Compound I-188] | 4.74 nM | 36.7 nM | 178 nM | 
Cc1ccc(Nc2ncc(F)c(NC3CC(C)(C)N(C)C(C)(C)C3)n2)cc1-c1cccnc1 [Compound I-197] | 4.38 nM | 60.3 nM |  | 237 nM

Compound | IC50 (PKC theta) | IC50 (PKC epsilon) | IC50 (Human primary T cells; Homo sapiens, T-cell, 24 h) | IC50 (Human primary T cells; 24 hours)
CCN1C(=O)C(C)(C)Oc2cc(Nc3ncc(C)c(NC4CC(C)(C)N(C)C(C)(C)C4)n3)ccc21 [II-145] | 28.1 nM | 2690 nM | 370 nM | 
COc1ccc(Nc2ncc(C#N)c(NC3CC(C)(C)N(C)C(C)(C)C3)n2)cc1Cl [Compound I-93] | 2.59 nM | 208 nM | 344 nM | 
CN1C(C)(C)CC(Nc2nc(Nc3ccc(N4CCN(S(C)(=O)=O)CC4)c(Cl)c3)ncc2C(F)(F)F)CC1(C)C [Compound I-92] | 4.56 nM | 271 nM | 208 nM | 
CN1C(C)(C)CC(Nc2nc(Nc3ccc(N4CCN(S(C)(=O)=O)CC4)c(Cl)c3)ncc2C#N)CC1(C)C [Compound I-102] | 12.6 nM | 218 nM | 217 nM | 
CCN1C(=O)C(C)(C)Oc2cc(Nc3ncc(F)c(NC4CC(C)(C)N(C)C(C)(C)C4)n3)ccc21 [II-35] | 8.94 nM | 159 nM | 142 nM | 
CN1CCN(c2ncc(Nc3ncc(F)c(NC4CC(C)(C)N(C)C(C)(C)C4)n3)cc2C(F)(F)F)CC1 [Compound I-273] | 3.34 nM | 4.87 nM |  | 217 nM
CN1C(C)(C)CC(Nc2nc(Nc3cccc(C#N)c3)ncc2C#N)CC1(C)C [Compound I-97] | 1.58 nM | 175 nM | 289 nM | 
CCOc1ccc(Nc2ncc(F)c(NC3CC(C)(C)NC(C)(C)C3)n2)cc1-n1nnnc1CC [Compound I-415] | 0.5 nM | 13 nM | 60 nM | 
COc1ccc(Nc2ncc(F)c(NC3CC(C)(C)N(C)C(C)(C)C3)n2)cc1OC(F)F [Compound I-239] | 2.06 nM | 54.6 nM | 99.1 nM | 
CN1C(C)(C)CC(Nc2nc(Nc3ccc(F)c(C#N)c3)ncc2F)CC1(C)C [Compound I-140] | 5.48 nM | 158 nM | 229 nM | 
CN1C(C)(C)CC(Nc2nc(Nc3ccc(CN4CCOCC4)c(C#N)c3)ncc2F)CC1(C)C [Compound I-450] | 2.5 nM | 9 nM |  | 260 nM
CN1C(C)(C)CC(Nc2nc(Nc3ccc(C(F)(F)F)c(N4CCN(S(C)(=O)=O)CC4)c3)ncc2F)CC1(C)C [Compound I-216] | 5.99 nM | 29 nM | 174 nM | 
CN1CCN(c2ccc(Nc3ncc(C#N)c(NC4CC(C)(C)N(C)C(C)(C)C4)n3)cc2Cl)CC1 [Compound I-101] | 5.51 nM | 131 nM | 94.6 nM | 
CCN1C(=O)C(F)(F)Oc2cc(Nc3ncc(F)c(NC4CC(C)(C)N(C)C(C)(C)C4)n3)cnc21 [II-27] | 3.88 nM | 65.8 nM | 210 nM | 
CC1(C)CC(Nc2nc(Nc3cc(OCC(F)(F)F)cc(OCC(F)(F)F)c3)ncc2F)CC(C)(C)N1 [Compound I-375] | 1.2 nM | 200 nM | 350 nM | 
CC1(C)CC(Nc2nc(Nc3cccc(-c4nn[nH]n4)c3)ncc2F)CC(C)(C)N1 [Compound I-471] |  | 982 nM |  | 
CN1C(C)(C)CC(Nc2nc(Nc3cccc(-c4nn[nH]n4)c3)ncc2F)CC1(C)C [Compound I-470] | 698 nM | 941 nM |  | 

Reference: patent US8993585B2, “Cyclic amine substituted pyrimidinediamines as PKC inhibitors” (Rigel Pharmaceuticals, Inc., priority 2007, dated 2015)
